This is an account of results in ChEMBL document CHEMBL4385640, “Synthesis, SAR study, and biological evaluation of novel 2,3-dihydro-1H-imidazo[1,2-a]benzimidazole derivatives as phosphodiesterase 10A inhibitors” (Bioorg Med Chem, 2019).

Molecules are shown by their SMILES. Values after ≈ are worked out from the molar mass of the structure shown. Active and inactive are the calls of the source. The rule behind the calls is not given here.

In data set [1] the target is cAMP and cAMP-inhibited cGMP 3',5'-cyclic phosphodiesterase 10A (Homo sapiens, UniProt Q9Y233). The data set can be described thus: Inhibition of human PDE10A using cAMP as substrate preincubated for 30 mins followed by substrate addition and measured after 60 mins by HTRF detection assay. (In general: Time-resolved FRET reads energy transfer from a long-lived donor to a nearby acceptor.)

In a further data set the test system is LLC-PK1. The data set can be described thus: Ratio of efflux ratio of LLC-PK1 cells expressing human MDR1 at 1 uM to efflux ratio of wild type LLC-PK1 cells at 1 uM. The format is ADME, cell-based, Sus scrofa. As to conditions: pig, llc-pk1, 1 µM.
Data set [2] is described as follows: Apparent permeability in wild type pig LLC-PK1 cells at 1 uM incubated for 3 hrs by […] LC-MS/MS analysis. The format is ADME, cell-based, Sus scrofa.
The nature of data set [3]: Drug uptake in mouse brain at 0.1 mg/kg, po measured after 1 hr by LC-MS/MS analysis. The format is ADME, organism-based.
The nature of data set [4]: Lipophilicity, logD of the compound at pH 7.4. The format is physicochemical. As to conditions: buffer.
The nature of data set [5]: Drug uptake in mouse plasma at 0.1 mg/kg, po measured after 1 hr by LC-MS/MS analysis. The format is ADME, organism-based.
The next data set addresses CYP3A4 (Homo sapiens, UniProt P08684). The data set can be described thus: Inhibition of CYP3A4 in human liver microsomes assessed as enzyme residual activity incubated for 30 mins by LC-MS/MS analysis relative to control. The format is ADME. As to conditions: read-out: Activity. Background: Liver microsomes are a subcellular fraction often used to study metabolism.
Data set [6] can be described thus: Solubility of the compound in pH 6.8 JP2 buffer. The format is physicochemical.
The nature of data set [7]: Total brain to plasma partition coefficient, Kp in mouse at 0.1 mg/kg, po measured after 1 hr by LC-MS/MS analysis. The format is ADME, organism-based.
Another data set concerns the target T1, CYP1A2 (Homo sapiens, UniProt P05177).
T1 sequence (P05177 whole entry): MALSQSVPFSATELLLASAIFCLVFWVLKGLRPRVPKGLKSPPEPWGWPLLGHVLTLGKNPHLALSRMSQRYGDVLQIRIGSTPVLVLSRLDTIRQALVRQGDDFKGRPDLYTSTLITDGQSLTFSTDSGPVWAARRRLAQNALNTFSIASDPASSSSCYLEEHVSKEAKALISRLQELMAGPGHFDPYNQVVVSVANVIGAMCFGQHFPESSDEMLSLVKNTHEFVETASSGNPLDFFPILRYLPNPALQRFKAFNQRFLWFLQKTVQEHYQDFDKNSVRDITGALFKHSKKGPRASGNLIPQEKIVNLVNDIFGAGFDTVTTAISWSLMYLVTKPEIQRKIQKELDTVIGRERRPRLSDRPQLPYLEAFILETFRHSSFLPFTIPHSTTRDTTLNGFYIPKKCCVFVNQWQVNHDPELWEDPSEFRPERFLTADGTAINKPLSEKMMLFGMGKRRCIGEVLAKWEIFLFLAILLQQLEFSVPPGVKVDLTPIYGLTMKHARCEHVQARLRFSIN
The experiment in a line: Inhibition of CYP1A2 in human liver microsomes assessed as enzyme residual activity incubated for 30 mins by LC-MS/MS analysis relative to control. The format is ADME. As to conditions: read-out: Activity.

For the next data set, the target named is T2, CYP2C8 (Homo sapiens, UniProt P10632).
T2 sequence (P10632 whole entry): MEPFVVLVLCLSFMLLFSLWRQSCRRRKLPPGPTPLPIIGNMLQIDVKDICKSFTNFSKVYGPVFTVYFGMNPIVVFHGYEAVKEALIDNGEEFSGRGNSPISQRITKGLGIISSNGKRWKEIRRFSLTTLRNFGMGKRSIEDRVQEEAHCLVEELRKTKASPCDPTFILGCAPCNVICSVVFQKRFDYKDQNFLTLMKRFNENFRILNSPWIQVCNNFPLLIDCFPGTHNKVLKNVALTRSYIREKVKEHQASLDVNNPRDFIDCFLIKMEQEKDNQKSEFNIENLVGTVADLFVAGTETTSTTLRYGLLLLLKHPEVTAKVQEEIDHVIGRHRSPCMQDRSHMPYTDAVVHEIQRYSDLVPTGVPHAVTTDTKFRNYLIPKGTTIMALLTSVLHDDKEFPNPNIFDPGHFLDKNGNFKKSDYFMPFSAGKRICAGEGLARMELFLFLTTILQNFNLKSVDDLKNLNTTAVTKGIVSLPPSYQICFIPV
The experiment in a line: Inhibition of CYP2C8 in human liver microsomes assessed as enzyme residual activity incubated for 30 mins by LC-MS/MS analysis relative to control. The format is ADME. As to conditions: read-out: Activity.

The next data set has as its target CYP2C9 (Homo sapiens, UniProt P11712). The experiment in a line: Inhibition of CYP2C9 in human liver microsomes assessed as enzyme residual activity incubated for 30 mins by LC-MS/MS analysis relative to control. The format is ADME. As to conditions: read-out: Activity.
A further data set addresses CYP2C19 (Homo sapiens, UniProt P33261). The data set can be described thus: Inhibition of CYP2C19 in human liver microsomes assessed as enzyme residual activity incubated for 30 mins by LC-MS/MS analysis relative to control. The format is ADME. As to conditions: read-out: Activity.
Another data set has as its target CYP2D6 (Homo sapiens, UniProt P10635). The experiment in a line: Inhibition of CYP2D6 in human liver microsomes assessed as enzyme residual activity incubated for 30 mins by LC-MS/MS analysis relative to control. The format is ADME. As to conditions: read-out: Activity.
Data set [8] is described as follows: Intrinsic clearance in human liver microsomes by LC-MS/MS analysis. The format is ADME, Microsome.
Data set [9] can be described thus: Intrinsic clearance in mouse liver microsomes by LC-MS/MS analysis. The format is ADME, Microsome. As to conditions: read-out: CLH.
Data set [10] deals with Mus musculus. The data set can be described thus: Antipsychotic activity in ICR mouse assessed as inhibition of Phencyclidine-induced hyperlocomotion pretreated orally followed by Phencyclidine injection and measured after 60 mins. The format is functional, organism-based.
In data set [11] the test system is Mus musculus. The experiment in a line: Cognition enhancement activity in ddY mouse assessed as suppression of MK-801-induced working memory deficit by measuring decrease in spontaneous alternation behavior at 0.1 to 0.3 mg/kg, po pretreated 40 mins before MK-801 dosing and measured after 20 mins by Y-maze test. The format is functional, organism-based.
The subject of data set [12] is Mus musculus. The experiment in a line: Effect on mean number of arm entries in ddY mouse at 1 mg/kg, po pretreated 40 mins before MK-801 dosing and measured after 20 mins by Y-maze test. The format is organism-based. As to conditions: in vivo.
Data set [13] concerns Mus musculus. The data set can be described thus: Effect on mean number of arm entries in ddY mouse at 0.03 to 0.3 mg/kg, po pretreated 40 mins before MK-801 dosing and measured after 20 mins by Y-maze test. The format is organism-based. As to conditions: in vivo.
Data set [14] is described as follows: Toxicity in ICR mouse assessed as induction of catalepsy up to 100 mg/kg, po treated for 60 mins and measured up to 120 secs by bar test. The format is organism-based. As to conditions: in vivo.

Sequence of cAMP and cAMP-inhibited cGMP 3',5'-cyclic phosphodiesterase 10A (Q9Y233 whole entry): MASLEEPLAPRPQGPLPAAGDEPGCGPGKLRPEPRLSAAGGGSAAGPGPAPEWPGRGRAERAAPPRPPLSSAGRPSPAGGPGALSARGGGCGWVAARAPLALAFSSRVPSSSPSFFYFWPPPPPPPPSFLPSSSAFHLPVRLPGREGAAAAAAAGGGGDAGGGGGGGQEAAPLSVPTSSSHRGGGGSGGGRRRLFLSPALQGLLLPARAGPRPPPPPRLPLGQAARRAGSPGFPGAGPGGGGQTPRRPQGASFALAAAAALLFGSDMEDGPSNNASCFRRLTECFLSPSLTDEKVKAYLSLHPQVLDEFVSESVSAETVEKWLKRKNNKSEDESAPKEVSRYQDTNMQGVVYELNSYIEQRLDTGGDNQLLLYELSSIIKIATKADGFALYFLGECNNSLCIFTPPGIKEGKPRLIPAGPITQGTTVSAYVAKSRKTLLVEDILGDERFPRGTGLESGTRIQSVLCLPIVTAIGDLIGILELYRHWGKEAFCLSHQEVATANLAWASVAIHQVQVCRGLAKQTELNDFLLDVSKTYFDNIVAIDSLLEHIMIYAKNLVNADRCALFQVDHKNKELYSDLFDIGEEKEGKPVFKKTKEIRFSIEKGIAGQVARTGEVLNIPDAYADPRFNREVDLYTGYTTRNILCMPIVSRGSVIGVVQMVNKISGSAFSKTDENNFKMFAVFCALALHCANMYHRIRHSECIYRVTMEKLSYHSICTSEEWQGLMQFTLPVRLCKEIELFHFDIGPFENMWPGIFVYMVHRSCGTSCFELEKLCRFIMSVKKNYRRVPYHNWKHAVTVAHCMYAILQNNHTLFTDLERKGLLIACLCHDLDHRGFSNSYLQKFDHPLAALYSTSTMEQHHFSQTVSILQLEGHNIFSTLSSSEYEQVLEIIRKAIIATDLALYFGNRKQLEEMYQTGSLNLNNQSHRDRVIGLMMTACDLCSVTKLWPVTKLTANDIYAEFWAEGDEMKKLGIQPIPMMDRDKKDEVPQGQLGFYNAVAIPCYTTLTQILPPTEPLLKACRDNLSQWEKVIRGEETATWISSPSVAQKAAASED
Sequence of CYP2C19 (P33261 whole entry): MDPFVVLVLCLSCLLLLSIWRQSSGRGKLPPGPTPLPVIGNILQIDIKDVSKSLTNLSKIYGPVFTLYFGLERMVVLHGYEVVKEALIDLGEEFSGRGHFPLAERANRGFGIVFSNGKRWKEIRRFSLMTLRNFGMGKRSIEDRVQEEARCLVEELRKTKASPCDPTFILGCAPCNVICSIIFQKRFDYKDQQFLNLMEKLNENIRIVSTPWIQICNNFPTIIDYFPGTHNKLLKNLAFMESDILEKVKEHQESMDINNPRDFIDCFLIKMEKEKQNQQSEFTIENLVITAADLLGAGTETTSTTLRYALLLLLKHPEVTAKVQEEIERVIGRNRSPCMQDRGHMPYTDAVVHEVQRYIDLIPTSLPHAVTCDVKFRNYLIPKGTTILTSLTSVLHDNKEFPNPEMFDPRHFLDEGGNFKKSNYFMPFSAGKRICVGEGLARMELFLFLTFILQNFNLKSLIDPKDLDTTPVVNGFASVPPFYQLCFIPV
Sequence of CYP3A4 (P08684 whole entry): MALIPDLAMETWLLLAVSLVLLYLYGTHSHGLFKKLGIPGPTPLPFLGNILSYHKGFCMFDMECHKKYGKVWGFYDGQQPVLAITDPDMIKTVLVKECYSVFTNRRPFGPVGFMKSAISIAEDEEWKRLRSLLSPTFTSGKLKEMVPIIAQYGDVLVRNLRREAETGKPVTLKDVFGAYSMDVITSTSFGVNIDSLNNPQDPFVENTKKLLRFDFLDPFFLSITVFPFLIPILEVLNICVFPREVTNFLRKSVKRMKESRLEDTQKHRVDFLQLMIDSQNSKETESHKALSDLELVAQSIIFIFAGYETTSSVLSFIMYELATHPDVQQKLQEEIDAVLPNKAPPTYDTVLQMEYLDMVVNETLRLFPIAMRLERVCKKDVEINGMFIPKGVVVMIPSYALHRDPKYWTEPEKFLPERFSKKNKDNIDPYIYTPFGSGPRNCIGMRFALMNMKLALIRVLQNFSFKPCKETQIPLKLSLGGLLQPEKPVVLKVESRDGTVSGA
Sequence of CYP2D6 (P10635 whole entry): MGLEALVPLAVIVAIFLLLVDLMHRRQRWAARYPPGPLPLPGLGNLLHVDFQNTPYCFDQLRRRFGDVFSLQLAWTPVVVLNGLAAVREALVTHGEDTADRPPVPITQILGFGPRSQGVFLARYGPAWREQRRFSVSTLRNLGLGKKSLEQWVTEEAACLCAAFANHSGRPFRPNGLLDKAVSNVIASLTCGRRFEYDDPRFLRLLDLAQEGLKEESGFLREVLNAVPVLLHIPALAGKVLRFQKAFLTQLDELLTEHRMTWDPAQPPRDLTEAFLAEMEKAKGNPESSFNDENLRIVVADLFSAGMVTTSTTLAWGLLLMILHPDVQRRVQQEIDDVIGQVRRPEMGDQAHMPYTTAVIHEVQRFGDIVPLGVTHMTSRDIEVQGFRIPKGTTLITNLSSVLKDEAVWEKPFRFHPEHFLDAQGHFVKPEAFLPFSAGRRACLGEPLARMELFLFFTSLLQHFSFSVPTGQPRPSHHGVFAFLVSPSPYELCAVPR
Sequence of CYP2C9 (P11712 whole entry): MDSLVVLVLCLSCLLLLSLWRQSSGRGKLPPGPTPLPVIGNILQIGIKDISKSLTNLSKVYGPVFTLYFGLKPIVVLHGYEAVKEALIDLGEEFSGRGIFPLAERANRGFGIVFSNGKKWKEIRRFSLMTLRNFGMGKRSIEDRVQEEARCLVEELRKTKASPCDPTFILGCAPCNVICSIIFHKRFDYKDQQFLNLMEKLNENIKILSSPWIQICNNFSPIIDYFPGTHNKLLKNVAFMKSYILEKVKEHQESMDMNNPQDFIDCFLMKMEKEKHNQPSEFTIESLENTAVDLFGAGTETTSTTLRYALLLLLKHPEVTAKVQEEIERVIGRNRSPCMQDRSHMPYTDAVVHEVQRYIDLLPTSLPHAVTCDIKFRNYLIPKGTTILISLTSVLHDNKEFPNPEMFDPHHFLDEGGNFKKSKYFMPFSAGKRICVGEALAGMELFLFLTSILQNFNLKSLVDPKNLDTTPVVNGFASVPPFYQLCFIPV

In general, IC50 refers to the point on the concentration scale where inhibition reaches its midpoint. A higher IC50 goes with weaker potency. In turn, `Cc1cc(C)n2nc(CCNc3nc4ccccc4n3C)nc2n1` registered a half-inhibitory concentration (IC50) in [1] of 88 nM.

Consider `Cc1cc(C)n2nc(CC(=O)N3CC(C)n4c3nc3ccccc34)nc2n1` (stereo unspecified), for which, in data set [1], the IC50 is 292 nM.

Compound `Cc1cc(C)n2nc(CC(=O)N3CCn4c3nc3c(C)cccc34)nc2n1` had an IC50 in data set [1] of over 10000 nM.

The compound `Cc1cc(C)n2nc(CC(=O)N3c4nc5ccccc5n4C[C@@H]3C)nc2n1` gave an IC50 in data set [1] of 28 nM. In addition, the Ratio in the data set on LLC-PK1 is listed as 2.4.

By Papp is commonly meant the rate of passage across a membrane or cell layer, normalised by area and donor concentration. Broadly, the logD is lipophilicity at a set pH, counting ionised and neutral species. Low values mean lower lipophilicity, high ones higher lipophilicity. With `Cc1cc(C)n2nc(CCc3cc(O)n4nc5ccccc5c4n3)nc2n1`, the Papp at 3 h, 1 µM in data set [2] came to 3.2 ×10⁻⁶ cm/s. The compound also gave an IC50 in data set [1] of 2 nM. The Ratio in the data set on LLC-PK1 was 1.8. The Drug uptake entry in data set [3] (in vivo, 1 h) is “Not Active”. This compound also registered a logD in data set [4] of 0.3. The compound also returned a concentration at 1 h in data set [5] of 0.59 ng/mL.

For `Cc1cc(C)n2nc(CCN3CCn4c3nc3ccccc34)nc2n1`, the Papp at 3 h, 1 µM in data set [2] is 19.2 ×10⁻⁶ cm/s. The compound also showed an IC50 in data set [1] of 138 nM. The Ratio with LLC-PK1 was 3.6.

For the compound `Cc1cc(C)n2nc(CCc3ccn4nc5ccccc5c4n3)nc2n1`, the concentration for half-maximal inhibition (IC50) in data set [1] worked out at 78 nM.

The compound `Cc1cc(C)n2nc(CCNc3ncc4ccccc4n3)nc2n1` displayed an IC50 in [1] of 2080 nM.

Consider `Cc1cc(C)n2nc(CC(=O)N3c4nc5ccccc5n4CC3(C)C)nc2n1`, for which 74 nM corresponded to half-maximal inhibition in data set [1] (IC50). The Ratio in the data set with LLC-PK1 came to 2.1.

Consider `Cc1cc(C)n2nc(CC(=O)N3CCCn4c3nc3ccccc34)nc2n1`, for which the half-inhibitory concentration (IC50) in data set [1] stood at 1480 nM.

In turn, `Cc1cc(C)n2nc(CC(=O)N3c4nc5ccccc5n4CC3C)nc2n1` (racemic) came in with a half-inhibitory concentration (IC50) in [1] of 69 nM. In the data set on LLC-PK1, the Ratio stood at 2.4.

For the compound `Cc1cc(C)n2nc(CCNc3cnc4ccccc4n3)nc2n1`, the midpoint of inhibition in data set [1], the IC50, lay at 1220 nM.

One may read the solubility as the concentration that dissolves in the medium under given conditions. Low readings indicate a poorly soluble substance, high ones a readily soluble substance. The Kp is the ratio of the level in a tissue or fluid to that in plasma or blood. Consider `Cc1ncc(C)n2nc(CC(=O)N3c4nc5ccccc5n4C[C@@H]3C)nc12`, for which the activity at 0.5 h was determined as 90% at CYP3A4; 98% on CYP1A2; 99% at CYP2C8; 96% at CYP2C9; 90% at CYP2C19; 102% at CYP2D6. In data set [2], the Papp at 3 h, 1 µM amounted to 27.5 ×10⁻⁶ cm/s. In [1], this compound showed an IC50 of 8.4 nM. In addition, the Ratio in the data set on LLC-PK1 was determined as 1.2. Moreover, the concentration at 1 h in data set [3] (brain, read-out: Drug uptake) was 2.2 ng/g; in [5], 0.91 ng/mL. This compound also registered a logD in data set [4] of 2. Besides, the concentration in solution in data set [6] (solubility) was 100 µM (≈ 36.1 µg/mL). This compound showed a Kp at 1 h in data set [7] of 2.3. Further, in [8], the CLH result was “Stable”. In addition, the CLint scaled in [9] stood at 175 mL/min/kg. Moreover, the Activity result in the data set on Mus musculus [10] is “Dose-dependent effect”; in the data set with Mus musculus [12], “Toxic”; in the data set with Mus musculus [13], “Non-Toxic”; in [14] it was “Non-Toxic”. In the data set with Mus musculus [11], the Activity result is “Active”.

Compound `Cc1ncc(C)n2nc(CC(=O)N3CCn4c3nc3ccccc34)nc12` displayed an IC50 in data set [1] of 44 nM. Also, in the data set on LLC-PK1, the Ratio is 1.3.

For the compound `Cc1ccc2c(c1)nc1n2CCN1C(=O)Cc1nc2nc(C)cc(C)n2n1`, the half-maximal inhibitory concentration (IC50) in data set [1] was 441 nM.

Take `Cc1ccc2nc3n(c2c1)CCN3C(=O)Cc1nc2nc(C)cc(C)n2n1`: in data set [1], half-maximal inhibition (IC50) required 416 nM.

Compound `Cc1cc(C)n2nc(CCNc3nc4ccccc4[nH]3)nc2n1` came in with an IC50 in data set [1] of 105 nM.

Take `Cc1cc(C)n2nc(CC(=O)N3CCn4c3nc3ccccc34)nc2c1`: the IC50 in [1] was found to be 135 nM. Moreover, the Ratio in the data set on LLC-PK1 is listed as 1.2.

Turning to `Cc1cc(C)n2nc(CC(=O)N3c4nc5ccccc5n4C[C@@H]3c3ccccc3)nc2n1`, the midpoint of inhibition in [1], the IC50, lay at 75 nM. For the same compound, in the data set on LLC-PK1, the Ratio turned out to be 3.8.

With `Cc1cc(C)n2nc(CC(=O)N3CCn4c3nc3cccc(C)c34)nc2n1`, in data set [1], the IC50 turned out to be 279 nM.

Turning to `Cc1cc(C)n2nc(CC(=O)N3c4nc5ccccc5n4C[C@H]3c3ccccc3)nc2n1`, in data set [1], the IC50 was 1920 nM.

In the case of `Cc1cc(C)n2nc(CC(=O)N3CCn4c3nc3ccccc34)nc2n1`, in [2], the Papp at 3 h, 1 µM was 16.8 ×10⁻⁶ cm/s. In data set [1], this compound showed an IC50 of 52 nM. Moreover, the Ratio in the data set with LLC-PK1 turned out to be 2.3.

Consider `Cc1cc(C)n2nc(CCNc3ccc4ccccc4n3)nc2n1`, for which half-maximal inhibition in data set [1] (IC50) required 294 nM.

Regarding `Cc1cc(C)n2cc(CC(=O)N3CCn4c3nc3ccccc34)nc2n1`, the IC50 in [1] stood at 275 nM. In the data set with LLC-PK1, the Ratio stood at 1.

Consider `Cc1cc(C)n2nc(CCc3cc(O)n4nc5ncccc5c4n3)nc2n1`, for which the IC50 in data set [1] turned out to be 2.9 nM.
